In patent publication US5447937A, “CNS active tetrahydrobenzothienopyridines” (SmithKline Beecham p.l.c., priority 1991, dated 1995):

Legend:
Rats = experiment: Geller-Seifter procedure (conflict session, anxiolytic properties); type: in vivo, rat; conditions: FR5 conflict session
Procedure: 1. Geller-Seifter Procedure
Potential anxiolytic properties have been evaluated using the Geller-Seifter procedure based on that originally described by Geller and Seifter, (1960) Psychopharmacologia, 1,482-492.
Rats are trained on a variable interval 30 sec schedule (VI30) to press a lever in order to obtain food reward. The 5 min sessions of the VI30 schedule alternate with 2-5 min of a schedule (FR5) in which every 5th lever press is followed by presentation of a food pellet paired with a 0.5 sec mild footshock. The total study lasts approximately 30 mins. Rats typically respond with high rates of lever pressing under the VI30 schedule and low response rates under the FR5 `conflict` session. Anxiolytic drugs increase the suppressed response rates of rats in `conflict` session.
Drugs are administered intraperitoneally or orally to groups of 3-8 rats 30 min before testing.
The results are expressed as the percentage increase in square root of the total number of lever presses in the FR5 `conflict` session. Square root transformation is necessary to normalise the data for statistical analysis using parametric methods (ANOVA).

[1] = biological target: rat cerebral cortex membranes ([35S]-TBPS binding); experiment: [35S]-TBPS binding to rat cerebral cortex membranes in vitro; conditions: 2 nM [35S]-TBPS, 5x10^-6 M GABA
Procedure: 2. [^35 S]-TBPS binding to rat cerebral cortex membranes in vitro
Pooled rat cerebral cortices are homogenised in 20 volumes of 0.32M sucrose and centrifuged at 1000 g for 20 minutes (4° C.). The supernatant is removed and recentrifuged at 50,000 g (4° C., 20 mins). The P2 pellet is then suspended in 20 volumes of Tris citrate buffer (pH 7.1) and centrifuged at 50,000 g (4° C., 20 mins). This washing step is repeated three times and the pellet finally resuspended in 20 volumes of buffer and stored at -70° C. prior to use.
The tissue suspension ([…]) is incubated (25° C., 120 mins) with [^35 S]-TBPS (2 nM) in Tris citrate buffer (pH 7.1) containing 0.2M NaCl and 5×10^-6 M GABA. Non-specific binding is measured in the presence of 10^-4 M picrotoxin. Varying concentrations of test drugs (10^-7, 10^-6, 10^-5 and 10^-4 M final concentration) are added in a volume of […]. The total assay volume is […]. Incubation is stopped by rapid filtration using a Skatron cell harvester and radioactivity measured by liquid scintillation spectrometry. IC50 's are calculated as the concentration of test drug to inhibit 50% of specific binding.

Mice = experiment: MES Test (maximal electroshock seizure); type: in vivo, mouse; conditions: 100 mg/kg p.o.
Procedure: The maximal electroshock seizure (MES) test in rodents is one of the most widely used models of human grand mal epilepsy^1. In this model, anticonvulsant agents elevate the threshold to electrically-induced seizures whilst proconvulsants lower the seizure threshold.
Mice (male, Charles River, U.K. CD-1 strain, 25-30 g) are randomly assigned to groups of 10-20 and dosed orally or intraperitoneally at a dose volume of 10 ml/kg with various doses of compound (1-100 mg/kg) or vehicle. Mice are then subjected at 30 or 60 rain post dose to a variable voltage electroshock (0.1 sec., 50 Hz, sine wave form) via a buccal and a subcutaneous electrode. The mean voltage and standard error required to induce a tonic seizure in 50% (CV50) of the mice in the group is determined by the `up and down` method of Dixon and Mood (1948)^2. Statistical comparisons between vehicle- and drug-treated groups are made using the method of Litchfield and Wilcoxon (1949)^3.
If a tonic convulsion does occur, then the voltage is decreased, and so on until all the animals in the group have been tested.
The percentage increase or decrease in CV50 for each group compared to the control is calculated.
Studies are carried out using a Heathkit shock generator with totally variable control of shock level from 0 to 200 V and voltage steps of 5 V are used.
Drugs are suspended in 1% methyl cellulose.

SMILES | responding in the 'conflict' session (Rats; 10 mg/kg p.o.) | responding in the 'conflict' session (Rats; 20 mg/kg p.o.) | IC50 [1] | CV50 (voltage inducing tonic seizure in 50% of mice) (Mice)
C#CCOC(=O)c1c(C)nc2sc3c(c2c1N)CCC(O)C3 (racemic) [Example 8, (±)-4-Amino-7-hydroxy-2-methyl-5,6,7,8-tetrahydrobenzo[b]thieno[2,3-b]pyridine-3-carboxylic acid, prop-2-ynyl ester] | significant increase |  |  | 
COC(=O)c1c(C)nc2sc3c(c2c1N)CCC(O)C3 (racemic) [Example 7, (±)-4-Amino-7-hydroxy-2-methyl-5,6,7,8-tetrahydrobenzo[b]thieno[2,3-b]pyridine-3-carboxylic acid, methyl ester] |  | significant increase |  | 
Cc1nc2sc3c(c2c(N)c1C(=O)OCC1CCC1)CCC(O)C3 (racemic) [Example 5, (±)-4-Amino-7-hydroxy-2-methyl-5,6,7,8-tetrahydrobenzo[b]thieno[2,3-b]pyridine-3-carboxylic acid, cyclobutylmethyl ester] |  |  | < 20 µM | 
CC#CCOC(=O)c1c(C)nc2sc3c(c2c1N)CCC(O)C3 (racemic) [Example 4, (±)-4-Amino-7-hydroxy-2-methyl-5,6,7,8-tetrahydrobenzo[b]thieno[2,3-b]pyridine-3-carboxylic acid, but-2-ynyl ester] |  | significant increase | < 20 µM | 
Cc1nc2sc3c(c2c(N)c1C(=O)OCC1CC1)CCC(O)C3 (racemic) [Example 6, (±)-4-Amino-7-hydroxy-2-methyl-5,6,7,8-tetrahydrobenzo[b]thieno[2,3-b]pyridine-3-carboxylic acid, cyclopropylmethyl ester] |  | significant increase | < 20 µM | 
C#CCCOC(=O)c1c(C)nc2sc3c(c2c1N)CCC(O)C3 (racemic) [Example 9, (±)-4-Amino-7-hydroxy-2-methyl-5,6,7,8-tetrahydrobenzo[b]thieno[2,3-b]pyridine-3-carboxylic acid, but-3-ynyl ester] | significant increase |  |  | 
C=CCCOC(=O)c1c(C)nc2sc3c(c2c1N)CCC(O)C3 (racemic) [Example 10, (±)-4-Amino-7-hydroxy-2-methyl-5,6,7,8-tetrahydrobenzo[b]thieno[2,3-b]pyridine-3-carboxylic acid, but-3-enyl ester] |  | significant increase |  | 
CCOC(=O)c1c(C)nc2sc3c(c2c1N)CCC(O)C3 (racemic) [Example 1, (±)-4-Amino-7-hydroxy-2-methyl-5,6,7,8-tetrahydrobenzo[b]thieno[2,3-b]pyridine-3-carboxylic acid, ethyl ester] |  | significant increase | < 20 µM | significant increase
CCOC(=O)c1c(C)nc2sc3c(c2c1N)CCC(O)C3 (single isomer, unassigned; (+)) [Example 3, (+)-4-Amino-7-hydroxy-2-methyl-5,6,7,8-tetrahydrobenzo[b]thieno[2,3-b]pyridine-3-carboxylic acid, ethyl ester] |  |  | < 20 µM | 
CCOC(=O)c1c(C)nc2sc3c(c2c1N(C)C)CCC(OC)C3 (racemic) [Example 19, (±)-4-Dimethylamino-7-methoxy-2-methyl-5,6,7,8-tetrahydrobenzo[b]thieno[2,3-b]pyridine-3-carboxylic acid, ethyl ester] |  |  | < 20 µM | 
